Laboratory results taken from patent US20250025411A1, “READILY SOLUBLE AND THERMOSTABLE GLUCAGON FORMULATIONS AND DELIVERY FOR MINI-DOSING AND CLOSED -LOOP PROPHYLACTIC TREATMENT OF HYPOGLYCEMIA” (Massachusetts Institute of Technology, priority 2023, published 2025).

How the values were obtained:
[1] = High throughput screening of water-soluble solid excipients for glucagon dissolution; format: physicochemical; settings: 37° C.; for Fold change vs. PBS Avg.: 30-minute incubation in pH 7.4 PBS containing 1 mg/mL excipient; for Glucagon concentration Avg.: solubilized glucagon after 30-minute incubation of lyophilized glucagon in pH 7.4 PBS containing 1 mg/mL excipient
[2] = Dissolution kinetics of solid glucagon tablets; format: physicochemical; settings: pH 7.4 PBS, 37° C.
Excerpt: Many of the top hits in the excipient screening (e.g., benzoic acid and sodium carbonate) promote glucagon dissolution by altering solution pH. Unlike many other successful excipients, the zwitterionic compound MSB can enhance glucagon dissolution in PBS without altering solution pH.
The excipients were cryo-milled and sieved to a particle size of 63-120 μm (230-120 mesh) before being combined with lyophilized glucagon powder. Solid glucagon formulations were manufactured by tablet compaction of the drug-excipient mixture (1 mm diameter die, 400 N compaction force) using an RD10A Natoli Tablet press. Magnesium stearate, a common lubricant used in tableting, was excluded from this process. The solid formulations were stored at 4° C. until use.
The dissolution kinetics of the solid formulations were assessed by incubating the solid glucagon formulations in 2 mL of pH 7.4 PBS, stored at 37° C. on an orbital shaker. At predetermined timepoints, 200 μL of supernatant was removed for HPLC analysis and an equivalent volume of release medium was replaced. The samples were diluted with equal parts of acetonitrile and analyzed using RP-HPLC.

Compound | Fold change vs. PBS Avg. [1] [fold] | Glucagon concentration Avg. [1] [mg/mL] | dissolution of solid glucagon formulation in neutral pH buffer [2]
O=S([O-])S(=O)[O-].[Na+].[Na+] [Sodium Dithionite] | 2.25 | 0.49 | 
O=C([O-])[C@H](O)[C@@H](O)[C@H](O)[C@H](O)CO.[Na+] [Sodium Gluconate] | 0.69 | 0.15 | 
O=C([O-])c1ccccc1O.[Na+] [Sodium Salicylate] | 1.84 | 0.40 | 
OC[C@H]1O[C@@](CO)(O[C@H]2O[C@H](CO)[C@@H](O)[C@H](O)[C@H]2O)[C@@H](O)[C@@H]1O [Sucrose] | 1.32 | 0.28 | 
O=S(=O)(O)CCNC(CO)(CO)CO [TES] | 1.75 | 0.38 | 
O=C(OC[C@H]1O[C@@H](OC(=O)c2cc(O)c(O)c(OC(=O)c3cc(O)c(O)c(O)c3)c2)[C@H](OC(=O)c2cc(O)c(O)c(OC(=O)c3cc(O)c(O)c(O)c3)c2)[C@@H](OC(=O)c2cc(O)c(O)c(OC(=O)c3cc(O)c(O)c(O)c3)c2)[C@@H]1OC(=O)c1cc(O)c(O)c(OC(=O)c2cc(O)c(O)c(O)c2)c1)c1cc(O)c(O)c(OC(=O)c2cc(O)c(O)c(O)c2)c1 [Tannic Acid] | 0.08 | 0.02 | 
NCCS(=O)(=O)O [Taurine] | 1.11 | 0.24 | 
NC(CO)(CO)CO [Tris base] | 2.50 | 0.54 | 
CC(C)[C@H](N)C(=O)O [Valine] | 1.89 | 0.41 | 
Betadex Sulfobutyl Ether Sodium | 1.56 | 0.34 | 
Bovine serum albumin | 2.86 | 0.62 | 
Methyl-B-Cyclodextrin | 1.27 | 0.27 | 
Sodium deoxycholate | 1.75 | 0.38 | 
glucagon [unformulated glucagon] |  |  | remained largely insoluble
